We go through seven compounds from ChEMBL document CHEMBL5321258, “Anticancer evaluation of benzofuran derivatives linked to dipiperazine moiety” (Bioorg Med Chem Lett, 2023).

In assay [1] the test system is A549. Kind of assay: Anticancer activity against human A549 cells assessed as inhibition of cell proliferation by SRB assay. It is filed as functional, cell-based. In general terms: Sulforhodamine B stains cellular protein and so reports cell mass.
Assay [2] relates to HeLa. Kind of assay: Anticancer activity against human HeLa cells assessed as inhibition of cell proliferation by SRB assay. It is filed as functional, cell-based.
Assay [3] concerns HeLa. Kind of assay: Anticancer activity against human Hela cells assessed as inhibition rate at 30 uM by SRB assay relative to control. It is filed as functional.
Assay [4] deals with HeLa. Kind of assay: Anticancer activity against human Hela cells assessed as inhibition rate at 10 uM by SRB assay relative to control. It is filed as functional.
The subject of assay [5] is A549. Kind of assay: Anticancer activity against human A549 cells assessed as inhibition rate at 30 uM by SRB assay relative to control. It is filed as functional.
Assay [6] relates to A549. Kind of assay: Anticancer activity against human A549 cells assessed as inhibition rate at 10 uM by SRB assay relative to control. It is filed as functional.
The subject of assay [7] is A549. Kind of assay: Induction of apoptosis in human A549 cells assessed as viable cells at 2.5 uM incubated for 24 hrs AnnexinV/ propidium iodide staining based flow cytometry (Rvb= 98.5 %). It is filed as functional. The following applies: read-out: Activity.
In assay [8] the test system is A549. Kind of assay: Induction of apoptosis in human A549 cells assessed as viable cells at 5 uM incubated for 24 hrs AnnexinV/ propidium iodide staining based flow cytometry (Rvb= 98.5 %). It is filed as functional. As to conditions: read-out: Activity.
For assay [9], the system named is A549. Kind of assay: Induction of apoptosis in human A549 cells assessed as early apoptotic cells at 2.5 uM incubated for 24 hrs AnnexinV/ propidium iodide staining based flow cytometry (Rvb= 0.79 %). It is filed as functional. (A flow cytometer gives signals particle by particle.)
In assay [10] the test system is A549. Kind of assay: Induction of apoptosis in human A549 cells assessed as early apoptotic cells at 5 uM incubated for 24 hrs AnnexinV/ propidium iodide staining based flow cytometry (Rvb= 0.79 %). It is filed as functional.
For assay [11], the system named is A549. Kind of assay: Induction of apoptosis in human A549 cells assessed as late apoptotic cells at 2.5 uM incubated for 24 hrs AnnexinV/ propidium iodide staining based flow cytometry (Rvb= 0.54 %). It is filed as functional.
The test system of assay [12] is A549. Kind of assay: Induction of apoptosis in human A549 cells assessed as late apoptotic cells at 5 uM incubated for 24 hrs AnnexinV/ propidium iodide staining based flow cytometry (Rvb= 0.54 %). It is filed as functional.
Assay [13] concerns A549. Kind of assay: Induction of apoptosis in human A549 cells assessed as necrotic cells at 2.5 uM incubated for 24 hrs AnnexinV/ propidium iodide staining based flow cytometry (Rvb= 0.16 %). It is filed as functional.
Assay [14] has as its system A549. Kind of assay: Induction of apoptosis in human A549 cells assessed as necrotic cells at 5 uM incubated for 24 hrs AnnexinV/ propidium iodide staining based flow cytometry (Rvb= 0.16 %). It is filed as functional.

Bounds are passed on as bounds.

Usually IC50 stands for the point on the concentration scale where inhibition reaches its midpoint. Broadly, the inhibition is the change of the read-out against control, counted positive when it falls. As for `CCN(CC)c1ccc2cc(C(O)c3ccc(OCCN4CCN(C(=O)CN5CCN(C(=O)c6ccc(C(F)(F)F)cc6)CC5)CC4)cc3)oc2c1` (stereo not drawn), the values for the IC50 in the assay with A549 [1] and with HeLa [2] were 0.12 µM and above 30 µM, respectively. The inhibition at 30 µM is 19.8% with HeLa [3] and 95.2% in the assay with A549 [5]. Further, the results for the inhibition at 10 µM in the assay with HeLa [4] and in the assay with A549 [6] were 11.3% and 92.5%, respectively. Besides, the viability at 2.5 µM in the assay with A549 [7] is 97%. The viability at 5 µM with A549 [8] was 94%. Also, the Activity is on record as 1.07% with A549 [9]; 1.95% in the assay with A549 [10]; 1.73% in the assay with A549 [11]; 3.49% in the assay with A549 [12]; 0.25% with A549 [13]; 0.55% in the assay with A549 [14].

`CCN(CC)c1ccc2cc(C(O)c3ccc(OCCN4CCN(C(=O)CN5CCN(C(=O)c6ccc(F)cc6)CC5)CC4)cc3)oc2c1` (stereo not drawn): the IC50 with A549 [1] is 0.43 µM; in the assay on HeLa [2] it was above 30 µM. Moreover, the results for the inhibition at 30 µM in the assay on HeLa [3] and in the assay on A549 [5] were 40.6% and 83.9%, respectively. The inhibition at 10 µM with HeLa [4] was 20.4%; with A549 [6], 80.1%. Also, the viability at 2.5 µM with A549 [7] was 71%. In the assay on A549 [8], the viability at 5 µM came out at 23.4%. Moreover, the Activity in the assay on A549 [9] was determined as 5.88%; in the assay with A549 [10] it was 28.5%; with A549 [11], 18.9%; in the assay with A549 [12], 39%; in the assay with A549 [13], 4.26%; in the assay with A549 [14], 9.18%.

As to `CCN(CC)c1ccc2cc(C(O)c3ccc(OCCN4CCN(C(=O)CN5CCN(C(=O)c6cccc(C(F)(F)F)c6)CC5)CC4)cc3)oc2c1` (stereo not drawn), the concentration for half-maximal inhibition (IC50) in the assay on A549 [1] was determined as 8.96 µM; with HeLa [2], 28.3 µM. Besides, the inhibition at 30 µM in the assay on HeLa [3] is 69.5%; in the assay on A549 [5] it was 81.2%. For the same compound, the inhibition at 10 µM in the assay on HeLa [4] was 43.9%; with A549 [6] it was 65.1%.

With `CCc1ccc(C(=O)N2CCN(CC(=O)N3CCN(CCOc4ccc(C(=O)c5cc6ccc(N(CC)CC)cc6o5)cc4)CC3)CC2)cc1`, the IC50 with A549 [1] is above 30 µM; with HeLa [2] it was 14.5 µM. The inhibition at 30 µM with HeLa [3] is 81.1%; in the assay on A549 [5], 76.7%. The inhibition at 10 µM stood at 42.7% in the assay with HeLa [4] and 24.7% in the assay with A549 [6].

Take `CCN(CC)c1ccc2cc(C(=O)c3ccc(OCCN4CCN(C(=O)CN5CCN(C(=O)c6ccc7ccccc7c6)CC5)CC4)cc3)oc2c1`: the results for the IC50 with A549 [1] and in the assay on HeLa [2] were 21.4 µM and 11.2 µM, respectively. Also, the inhibition at 30 µM was 85.3% in the assay with HeLa [3] and 78.8% with A549 [5]. Also, the inhibition at 10 µM in the assay on HeLa [4] was 48.7%; in the assay on A549 [6] it was 30.9%.

Turning to `CCN(CC)c1ccc2cc(C(O)c3ccc(OCCN4CCN(C(=O)CN5CCN(C(=O)c6ccc7ccccc7c6)CC5)CC4)cc3)oc2c1` (stereo not drawn), the IC50 in the assay on A549 [1] was 3.05 µM; with HeLa [2], above 30 µM. Moreover, the values for the inhibition at 30 µM in the assay with HeLa [3] and in the assay on A549 [5] were 24% and 89.2%, respectively. The inhibition at 10 µM stood at 12.1% in the assay with HeLa [4] and 77.9% in the assay on A549 [6].

As for `CCN(CC)c1ccc2cc(C(=O)c3ccc(OCCN4CCN(C(=O)CN5CCN(C(=O)c6ccc(OC)cc6)CC5)CC4)cc3)oc2c1`, the IC50 amounted to 8.06 µM in the assay with A549 [1] and 27.2 µM in the assay with HeLa [2]. Besides, the inhibition at 30 µM stood at 64.1% with HeLa [3] and 85.8% in the assay on A549 [5]. For the same compound, the results for the inhibition at 10 µM with HeLa [4] and in the assay on A549 [6] were 27.5% and 65.3%, respectively.
